# Results taken from US5143925A, “Alteration of rate and character of hair growth” (priority 1991, dated 1992).
# Tests used:
# [1] = tested on: flank organs of male intact Golden Syrian hamsters; test: Hamster flank organ hair growth (hair mass) after topical application; assay type: in vivo; conditions: for Flank Organ Hair Mass, Treated: topical 10-25 μl once a day; for Flank Organ Hair Mass, Treated / % Inhibition of hair mass (+SEM): 18 days; for % Inhibition of hair mass (+SEM): treated organ vs vehicle-treated organ of same animal; for Hair shaft structure, microscopic examination: hair shafts harvested from flank organs
# Description: A vehicle or carrier was prepared having the following composition:
# The compound BBD was mixed with separate portions of the foregoing vehicle to provide specimens containing 1,2,5,10, and 20% by weight of the inhibitor respectively.
# Five groups (seven or eight animals in each group) of male intact Golden Syrian hamsters were provided. These animals are considered acceptable models for human beard hair growth in that they display oval shaped flank organs, one on each side, each about 8 mm. in major diameter, which grow thick black and coarse hair similar to human beard hair. These organs produce hair in response to androgens in the hamster. The flank organs of each hamster were depilated by applying a thioglycolate-based chemical depilatory (Surgex), and to one organ of each animal was applied 10-25 μl. of vehicle alone once a day, while to the other organ of each animal was applied an equal amount of vehicle containing inhibitor. After 2 1/2 weeks of such applications (five days a week for a total of eighteen days), the flank organs were shaved and the amount of recovered hair (hair mass) from each was weighed. The extent of reduction in hair growth by the inhibitor was expressed as the percent decrease in hair mass on the organ treated with inhibitor as compared to the organ treated with vehicle alone. As a control, one additional control group of eight animals had both flank organs of each animal treated with vehicle alone.
# transglutaminase = test: Inhibiting effect on transglutaminase activity; assay type: biochemical
smiles,measurement,setting,value
"O=C(N[C@@H](Cc1ccccc1)C(=O)NCC1CC(Br)=NO1)OCc1ccccc1 (some centres unmarked) [BBD, 3-bromo-5-(N-benzyloxycarbonyl-1-phenylalanamido-methyl)-4,5-dihydroisoxazole]","Flank Organ Hair Mass, Treated",[1]; 1% BBD in vehicle,2.614 ± .19 mg ± SEM
same,% Inhibition of hair mass (+SEM),[1]; 1% BBD,19.54 ± 6.07%
same,"Length of the hair, visual inspection during treatment","[1]; 1-20% BBD, topical, hamster flank organ",decrease in the length of the hair dependent upon the concentration of the inhibitor
same,"Flank Organ Hair Mass, Treated",[1]; 2% BBD in vehicle,2.827 ± .23 mg ± SEM
same,% Inhibition of hair mass (+SEM),[1]; 2% BBD,-3.63 ± 9.91%
same,"Flank Organ Hair Mass, Treated",[1]; 5% BBD in vehicle,2.279 ± .28 mg ± SEM
same,% Inhibition of hair mass (+SEM),[1]; 5% BBD,22.83 ± 9.62%
same,"Hair shaft structure, microscopic examination",[1]; 5% and 10% concentrations of BBD,less dramatic but visually obvious changes in the medulla of hair shafts
same,"Flank Organ Hair Mass, Treated",[1]; 10% BBD in vehicle,1.389 ± .12 mg ± SEM
same,% Inhibition of hair mass (+SEM),[1]; 10% BBD,56.08 ± 4.64%
same,"Flank Organ Hair Mass, Treated",[1]; 20% BBD in vehicle,.333 ± .06 mg ± SEM
same,% Inhibition of hair mass (+SEM),[1]; 20% BBD,87.87 ± 1.54%
same,"Hair shaft structure, microscopic examination",[1]; 20% concentration of BBD,dramatic deterioration of the hair shaft structure including disorganization of the medulla and cuticle
same,Inhibiting effect on transglutaminase activity,transglutaminase,dose related
